Data reported in US20040115237A1, “Biocompatible composite” (priority 2001, published 2004).

Experiments:
HA-VSCMs = assay: HA-VSMC culture on silicone based film membranes, viability staining viewed under CLSM; assay type: cell-based, Human; conditions: GTN coated FISi membrane vs FISi only film membranes
Protocol: HA-VSCMs were cultured on silicone based film membranes supplied by Vascutek. 2 membrane types were tested: uncoated FISi membrane and FISi membrane coated with GTN. Cells were seeded at 5×10^3 seeding density. Cells were cultured for a week and the medium was changed every two days. […] This problem was overcome by sticking the coverslips to the plate with double sided tape before the wells were seeded. Furthermore the cells were washed off during staining or the cells were saved for too long. Some cells were saved by introducing a gentle washing step. On the seventh day, the coverslips were stained and viewed under the CLSM for viability studies.
The following were used as viability stains; CFDA (carboxyfluorescein diacetate) is a vital stain that penetrates cell membranes. Viable cells contain esterase enzymes that remove the diacetate from the molecule thus forming CF which is fluorescent. Once CF if formed, it accumulates in the membrane and viable cells with fluoresce bright green.
Ethidium Bromide: is a vital dye that is only able to pass through the compromised membrane of dead cells and stain them red.
Acridine Orange: is a dye which intercalates with DNA and RNA by intercalation or electrostatic attraction.

[1] = test system: Human Aortic Vascular SMC cell line; assay: SMC growth inhibition after drug exposure, MTT assay and Neutral Red assay; assay type: cell-based; conditions: high doses; analysed after 72 hours
Protocol: The Human Aortic Vascular SMC cell line was investigated. 96 well plates were seeded and were incubated for at least one day. Medium from the plate was removed and replaced with medium containing varying concentrations of drugs, the drugs being dex, aspirin, GTN or a combination of these drugs. The effects of the drugs were analysed after 72 hours with two viability assays: MTT assay and Neutral Red assay. Absorbance values were read from a microplate reader. MTT is a yellow tetrazolium salt taken up into cells. In viable cells, the salt was reduced in cytosol or mitochondria to form blue formazan salt. The formazan product was very insoluble and was disolved in dimethylsulphoxide before its absorbance was calculated. In non-viable cells, there was no reaction and the cells remained yellow. The Neutral Red assay involved adding neutral red solution, a red dye to cells. In viable cells, the dye stained lysosomes. The cells were incubated with neutral red solution for three hours (to enable dye to penetrate cells), a neutral red destain solution was then added to remove the dye. The intensity of the red colour equated to the number of viable cells.

SMILES	cell growth compared to FISi only film membranes (HA-VSCMs)	role in the treatment of vascular proliferative disorder (SMC growth inhibition) [1]
O=[N+]([O-])OCC(CO[N+](=O)[O-])O[N+](=O)[O-] [GTN, Glyceryl Trinitrate]	does not significantly decrease cell growth	–
CC(=O)Oc1ccccc1C(=O)O [aspirin, acetylsalicylic acid]	–	appear to have a beneficial role
